Results taken from paper PMC5431342, “Discovery of an enzyme and substrate selective inhibitor of ADAM10 using an exosite-binding glycosylated substrate” (Scientific Reports, 2016).

Assays:
ADAM10 [1] = target: T1, ADAM10 (Homo sapiens, UniProt O14672); experiment: ADAM10 non-glycosylated substrate assay; type: biochemical; details: non-glycosylated substrate
T1 construct: purchased R&D Systems 936-AD
T1 sequence (O14672 214-748): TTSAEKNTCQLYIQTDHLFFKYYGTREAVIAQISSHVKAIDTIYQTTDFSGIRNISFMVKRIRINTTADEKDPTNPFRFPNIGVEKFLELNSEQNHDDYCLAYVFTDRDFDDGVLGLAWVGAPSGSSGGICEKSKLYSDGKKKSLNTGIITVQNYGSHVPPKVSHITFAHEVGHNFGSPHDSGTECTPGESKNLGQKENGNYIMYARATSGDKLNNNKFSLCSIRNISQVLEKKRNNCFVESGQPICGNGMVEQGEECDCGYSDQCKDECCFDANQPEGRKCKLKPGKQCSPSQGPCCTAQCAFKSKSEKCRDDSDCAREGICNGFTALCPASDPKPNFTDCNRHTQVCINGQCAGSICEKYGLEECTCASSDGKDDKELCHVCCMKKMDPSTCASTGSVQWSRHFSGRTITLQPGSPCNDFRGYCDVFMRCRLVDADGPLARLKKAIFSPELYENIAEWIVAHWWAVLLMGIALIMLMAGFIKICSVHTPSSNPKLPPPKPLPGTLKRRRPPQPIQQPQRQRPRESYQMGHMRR
Excerpt: Additionally, we synthesized a non-glycosylated version, E(Edans)-[…]-K(Dabcyl), to be used as a control in the follow-up studies.

ADAM10 [2] = target: T1, ADAM10; experiment: HPLC-based ADAM10 assay using glycosylated substrate; type: biochemical
Procedure: Both assays followed the same general protocol. 30 µL of 3x enzyme solution (30 nM) in assay buffer (10 mM Hepes, 0.001% Brij-35, pH 7.5) were added to solid bottom black 384 plates. Next, 30 µL of 3x test compounds and pharmacological controls were added to corresponding wells. After 30 min incubation at RT, the reactions were started by addition of 30 µL of 3x solution of glycosylated substrate (30 µM). Reactions were incubated at RT for 2 h and then quenched with 10 µL of 500 µM EDTA. Analytical RP-HPLC was performed on a 1260 Infinity Agilent Technologies liquid chromatograph equipped with an Agilent Poroshell 120 column. Eluents were 0.1% TFA in water (A) and 0.1% TFA in acetonitrile (B). The elution gradient was 0–98% B in 15 min with a flow rate of 1.0 mL/min. Detection was at λ = 214, 360, and 460 nm.

[3] = tested on: IL-8-induced migration of primary human neutrophils; experiment: Neutrophil migration assay; type: cell-based
Procedure: For PBMC or primary human neutrophil chemotaxis assays, transwells with 8 or 5 µm pores were filled with 100 µL of cell suspension (1 × 10^6 cells in 100 µL DMEM + 0.2% BSA). Lower wells were filled with stimulus solution (3 nM CCL2 or 10 µg/mL CXCL8 (IL8) in assay buffer (RPMI + 0.2% BSA). After incubation of PBMCs for 2 h or neutrophils for 45 min, migrated cells were quantified in the lower well. For inhibitor studies, cells were pre-incubated in migration medium for 30 min and subsequently subjected to the migration experiment. Migrated neutrophils or PBMCs were quantified by measurement of endogenous glucuronidase activity as described.

ADAM17 = target: T2, ADAM17 (Homo sapiens, UniProt P78536); experiment: ADAM17 glycosylated substrate uHTS/HTS assay; type: biochemical; details: original uHTS dose response, 10-point 1:3 dilutions starting at 70 µM
T2 construct: purchased R&D Systems 930-ADB
Procedure: Both assays followed the same general protocol. […] After 30 min incubation at RT, the reactions were started by addition of 2.5 µL of 2x solutions of glycosylated substrate (20 µM). Reactions were incubated at RT for 2 h, after which the fluorescence was measured using Perkin Elmer Viewlux multimode microplate imager (λexcitation = 360 nm, λemission = 460 nm). Final concentration of test compounds in assays was 7.0 µM.
(§1) The miniaturized 1536-well plate format ADAM10 and ADAM17 assays were used to screen a collection of ≈370,000 compounds (MLSMR library, provided by the NIH) on the automated Kalypsys/GNF platform at the Scripps Research Institute Molecular Screening Center (SRIMSC, Jupiter, FL. More details at http://hts.florida.scripps.edu/). […] Both uHTS campaigns were run separately but in a similar manner. Briefly, the first step was the primary screen of all MLSMR’s test compounds as singlicate against the ADAM10 or ADAM17 target at a final concentration of 7.0 μM. Next, compounds selected as primary hits were cherry-picked and retested in triplicate against the primary screen target and its anti-target (ADAM17 for the ADAM10 screening effort, and vice-versa) at the same final concentration of 7.0 μM. […] All data generated during this effort were uploaded to the SRIMSC’s institutional screening database (Assay Explorer, Symyx). Sample to background (S/B) ratios, as well as Z and Z′ values were calculated on a per-plate basis as described before. Curve fitting and resulting IC50 determinations were performed as previously reported.

ADAM10 [4] = target: T1, ADAM10; experiment: ADAM10 glycosylated substrate uHTS/HTS assay; type: biochemical
Procedure: To enable uHTS both ADAM10 and ADAM17 glycosylated substrate[13] (Fig. 1A) assays were miniaturized to 1536 well plate format. The workflow of the assays in 384 well plate format was recaptured in 1536 well plate format and assay volume was scaled down to 5 µL.
Both assays followed the same general protocol. […] Reactions were incubated at RT for 2 h, after which the fluorescence was measured using Perkin Elmer Viewlux multimode microplate imager (λexcitation = 360 nm, λemission = 460 nm). Final concentration of test compounds in assays was 7.0 µM.
as §1

MDA-MB-231 cells = experiment: Wound closure assay, MDA-MB-231; type: cell-based; details: MDA-MB-231, 10 µM
Procedure: For live-cell analysis of scratch-induced wound closure, 2.5 × 10^4 MDA-MB-231 and A549 cells per well were seeded in collagen G (40 µg/mL) (Biochrom AG, Germany) coated 96-well plates near confluence and allowed to grow overnight in standard medium (DMEM supplemented with 10% FBS and 1% P/S). At confluence, cells were pretreated 2 h with mitomycin (10 µg/mL) (Medac, Germany) to block cell proliferation and washed with standard media. Afterwards, cells were incubated in the presence of inhibitor at the indicated concentrations or DMSO (0.1% vehicle). Subsequently, a defined scratch (wound width between 642–767 µm) was performed in each well using the certified Essen Bioscience automated 96-wound maker^TM (Essen Biosciences, Hertfordshire, UK) for 96 well-plates. The medium was removed and 100 µL standard medium were added to the wells containing either inhibitor or DMSO. The closure of the wounded area was monitored using the IncuCyte ZOOM system by taking images of each well every 2 h over a period of 24 h. The reduction of wound width was determined over time using the IncuCyte ZOOM microscope software 2014A. Data were expressed as percentage of wound closure after 8 h.

T2 sequence (P78536 215-824): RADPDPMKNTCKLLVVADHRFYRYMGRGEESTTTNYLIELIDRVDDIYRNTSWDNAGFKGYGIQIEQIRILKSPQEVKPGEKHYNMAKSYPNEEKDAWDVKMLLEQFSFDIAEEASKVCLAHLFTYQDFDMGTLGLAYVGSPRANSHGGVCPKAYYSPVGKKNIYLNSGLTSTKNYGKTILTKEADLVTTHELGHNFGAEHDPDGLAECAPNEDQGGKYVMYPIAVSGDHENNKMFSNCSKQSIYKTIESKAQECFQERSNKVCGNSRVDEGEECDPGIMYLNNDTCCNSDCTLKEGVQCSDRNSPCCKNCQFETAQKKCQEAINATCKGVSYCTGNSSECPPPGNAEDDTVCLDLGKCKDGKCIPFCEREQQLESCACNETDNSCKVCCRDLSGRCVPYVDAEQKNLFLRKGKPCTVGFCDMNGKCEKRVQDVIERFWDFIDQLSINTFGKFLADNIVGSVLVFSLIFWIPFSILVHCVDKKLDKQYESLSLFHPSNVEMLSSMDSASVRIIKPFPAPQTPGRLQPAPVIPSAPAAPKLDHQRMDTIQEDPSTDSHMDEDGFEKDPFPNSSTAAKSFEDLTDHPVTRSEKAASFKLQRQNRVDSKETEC

COc1cccc(C(=O)NNC(=O)C(=O)Nc2ccc(C)c(Cl)c2)c1 [CID 3117694]
IC50 (ADAM10 [1]): > 100 µM | IC50 (ADAM10 [2]): 4.1 µM | inhibition of neutrophil migration [3]: inhibition of migration to random migration levels | IC50 (ADAM17): > 70 µM | difference in potency, 0.5 hour pre-incubation versus no incubation (ADAM10 [4]): approximately 40 fold | IC50 (ADAM10 [4]; 1 h pre-incubation): 0.7 ± 0.5 µM | IC50 (ADAM10 [4]; 4 h pre-incubation): 0.4 ± 0.3 µM | difference in in vitro potency for ADAM10, GI 254023X versus CID 3117694 (ADAM10 [4]; IC50 5.3 nM versus 1.1 µM): ~200 fold | IC50 (ADAM10 [4]; no pre-incubation with ADAM10): 40 ± 5 µM | inhibition profile (ADAM10 [4]; no pre-incubation with ADAM10): partial inhibition profile | IC50 (ADAM10 [4]; original uHTS dose response, 10-point 1:3 dilutions starting at 70 µM): 6.5 µM | IC50 (ADAM10 [4]; reordered powder, HTS assay, glycosylated substrate, 0.5 h pre-incubation): 1.1 µM | effect on wound healing (MDA-MB-231 cells): significantly decreased wound healing
